Paper PMC8877061, “Antifungal and Antibiofilm Activity of Cyclic Temporin L Peptide Analogues against Albicans and Non-Albicans Candida Species” (Pharmaceutics, 2022)
Several values for one entry are separate records, joined by “and”; a condition that tells them apart may be missing. Equal values may be shown once. Positions of bridges follow the written chain, without caps; N, C: chain ends. Non-standard residues stand in square brackets, D forms with d. Residues, ends and D or L forms follow the SMILES beside them. Triazole bridges read from a SMILES are 1,4-linked. Lys(N3) = [N-]=[N+]=NCCCC[C@H](N)C(=O)O; Pra = C#CC[C@H](N)C(=O)O

How the values were obtained:
[1] = test system: G. mellonella larvae infected by different Candida species; experiment: G. mellonella fungal infection model (Kaplan-Meier survival); assay type: in vivo; conditions: for in vivo effectiveness on infected G. mellonella larvae: 10^6 yeast cells with 12.5 μM peptide, 10 μL injected, 37 °C, different Candida species
Protocol: The G. mellonella fungal infection model was performed as described previously. We first determined the lethal concentrations of C. albicans, C. auris, C. glabrata, C. tropicalis and C. parapsilosis inocula by injecting concentrations of 10^4, 10^5 or 10^6 cells/larvae. The larvae were kept in Petri dishes at 37 °C, and survival was monitored for 3 d. A system of scoring already proposed by Loh et al. based on survival, mobility, degree of melanization, and the ability to produce a cocoon was used to evaluate the physical state of the larvae for 3 days. To evaluate the effects of the five peptides on Candida infection and compare mortality, 10 μL of 10^6 yeast cells in a medium containing 12.5 μM of each peptide’s concentrations was injected into the last left proleg of the larvae and incubated at 37 °C. The larvae were incubated at 37 °C and monitored daily for survival.

[2] = Circular dichroism in liposomes mimicking eukaryotic membranes; assay type: physicochemical; conditions: SUVs DOPC:Chol 70:30, peptide 80 μM; for helical content: CD, phosphate buffer 5 mM pH 7.4, 25 °C, from [θ]222
Protocol: The circular dichroism spectra of the selected peptides (3, 7, 15 and 16) were recorded in small unilamellar vesicles (SUVs) composed of PE/PC/PI/Ergosterol (5:4:1:2, w/w/w/w, final lipid concentration = 0.01 mM) and DOPC/Chol (70:30, ratio in moles, final lipid concentration = 0.1 mM), between 190 and 260 nm on a JASCO J-710 CD spectropolarimeter at 25 °C using quartz cells with a 0.1-cm path length. The SUVs were prepared as reported in the following protocol. Once the lipid films were prepared as described above, they were hydrated with a phosphate buffer (5 mM, pH 7.4) (DOPC:Chol) or water (PE/PC/PI/Ergosterol) for 1 h and sonicated for 40 min. The peptides were dissolved in water to form a sample with a concentration of 80 μM in SUVs made of DOPC/Chol, while a peptide concentration of 10 μM was used in SUVs made of PE/PC/PI/Ergosterol. We accumulated the data three times, and all spectral data were subtracted from the background. Each spectrum converted the signal to the mean molar ellipticity, and we calculated the ratio of the ellipticities at 222 and 208 nm to discriminate between the monomeric and oligomeric states of the helices. The helix content was calculated as follows: [θ]222/(−40,000[1 − 2.5/n)], where [θ]222 is the ellipticity measurement at 222 nm and n is the number of amino acid residues.

[3] = ANTS/DPX leakage, eukaryotic membrane-like LUVs; conditions: peptide 50 μM, Chol/DOPC LUVs 0.1 mM lipid, PBS pH 7.2, 10 min, fluorescence 385/512 nm
Protocol: (§1) ANTS/DPX-entrapped large unilamellar vesicles (LUVs) composed of PE/PC/PI/Ergosterol (5:4:1:2, w/w/w/w) and Chol/DOPC (70:30, ratio in moles) were prepared by the extrusion method as previously described in [28]. First, the lipid films were prepared by dissolving lipids in the proper ratio in chloroform to have a final concentration of 0.1 mM and then dried under a nitrogen gas stream. The probes of ANTS (12.5 mM) and DPX (45 mM) dissolved in water were added to the lipid films, and the mixture was freeze-dried overnight. The lipid films with encapsulated ANTS and DPX were hydrated with a PBS 1× buffer (pH = 7.2), vortexed for 1 h, freeze-thawed 6 times and extruded 10 times through 0.1-μm pore size polycarbonate filters to obtain the LUVs. The LUVs with entrapped ANTS and DPX were separated from the free ANTS and DPX by gel filtration chromatography on a Sephadex G-50 column (1.5 × 10 cm). The assay was based on the measurement of dequenching of ANTS by DPX when the LUVs were incubated with peptide concentrations of 5, 10, 15, 20, 30 and 50 μM. The increase in ANT fluorescence was recorded at an excitation fluorescence at 385 nm (slit width: 5 nm) and a fluorescence emission at 512 nm (slit width: 5 nm) for 10 min after the addition of the peptide. The destruction of all LUVs and the complete release of ANTs were obtained after treatment with 10% Triton-X. The percentage of liposome leakage was calculated as %leakage = (Fi − F0)/(Ft − F0), where F0 represents the fluorescence of the intact LUVs before the addition of the peptide and Fi and Ft are the intensities of the fluorescence achieved after peptide and Triton-X treatment, respectively.

[4] = ANTS/DPX leakage, fungal membrane-like LUVs; conditions: for leakage activity against liposomes mimicking the fungal membrane: PE/PC/PI/ergosterol LUVs, concentration not given; for liposome leakage (ANTS release), fungal membrane-like LUVs: peptide 20 μM, PE/PC/PI/ergosterol LUVs 0.1 mM lipid, PBS pH 7.2, 10 min, fluorescence 385/512 nm
Protocol: as §1

[5] = Critical aggregation concentration with Nile red; assay type: physicochemical; conditions: aqueous solution, Nile red 500 nM, 1 h, peptide 1-200 μM, emission maximum fitted with Boltzmann sigmoid, triplicate
Protocol: The peptide aggregation in the aqueous solution was monitored using Nile red as a dye probe. Nile red has poor solubility in water, and it has a large tendency to move in a hydrophobic environment as aggregates, showing a blue shift. First, the stock solutions of the peptides were prepared by dissolving them in ethanol, and then different aliquots were taken to prepare the peptide solutions at different concentrations (1, 5, 10, 15, 20, 30, 50, 100 and 200 μM). The ethanol was evaporated under a nitrogen gas stream and then dissolved with sterile water (1.5 mL), sonicated for 15 min and freeze-dried. Then, each peptide solution was hydrated with Nile red solution (C = 500 nM) in the dark place for 1 h before measurement. The emission spectra of Nile red were measured between 570 and 700 nm at a slit width of 5 nm using an excitation wavelength of 550 nm and a 10-nm slit width. The data were repeated in triplicate and analyzed by plotting the maximum emission fluorescence corresponding wavelength (y) as a function of the peptide concentration (x) and fitting with the sigmoidal Boltzmann equation: y=A1−A2/1+e^(x−x0/Δx)+A2
In the equation, A1 and A2 indicate the upper and lower limits of the sigmoid, respectively, x0 is the inflection point of the sigmoid and Δx is the parameter which represents the steepness of the function. The sigmoidal plot allows for calculating the CAC value at x0.

| Structure (SMILES) | survival rate of infected larvae ([1]; 12.5 μM, larvae infected by all strains, after 48 h) | in vivo effectiveness on infected G. mellonella larvae [1] | helical content [2] | liposome leakage (ANTS release), eukaryotic membrane-like LUVs [3] | leakage activity against liposomes mimicking the fungal membrane [4] | liposome leakage (ANTS release), fungal membrane-like LUVs [4] | critical aggregation concentration (CAC) [5] | ratio of the ellipticities at 222 and 208 nm ([2]; >1 = helical aggregates) | conformation by CD in DOPC:Chol liposomes ([2]; 25 °C) |
| --- | --- | --- | --- | --- | --- | --- | --- | --- | --- |
| CC[C@H](C)[C@H](NC(=O)[C@H](CCCNC(=N)N)NC(=O)[C@@H]1CCC(=O)NCCCC[C@H](NC(=O)[C@H](Cc2ccccc2)NC(=O)[C@H](Cc2c[nH]c3ccccc23)NC(=O)[C@@H]2CCCN2C(=O)[C@@H](NC(=O)[C@@H](N)Cc2ccccc2)C(C)C)C(=O)N[C@@H](CCCCN)C(=O)N[C@@H](Cc2ccccc2)C(=O)N[C@H](CC(C)C)C(=O)N1)C(=O)N[C@@H](CC(C)C)C(N)=O [compound 3] (H-FVPWFKKF[dL]ERIL-NH2; lactam 6-10; N-terminus assumed) | increased the survival rate | in vivo effectiveness | ~ 13% | ~ 28% | ~30% | ~ 30% | 17.3 ± 0.9 µM |  |  |
| CC(C)C[C@H](NC(=O)[C@@H]1CCCCn2cc(nn2)C[C@H](NC(=O)[C@H](CCCCN)NC(=O)[C@H](CO)NC(=O)[C@H](Cc2ccccc2)NC(=O)[C@H](Cc2c[nH]c3ccccc23)NC(=O)[C@@H]2CCCN2C(=O)[C@@H](NC(=O)[C@@H](N)Cc2ccccc2)C(C)C)C(=O)N[C@H](CC(C)C)C(=O)NCC(=O)N[C@@H](CCCNC(=N)N)C(=O)N1)C(N)=O [compound 7] (H-FVPWFSK[Pra][dL]GR[Lys(N3)]L-NH2; triazole 8-12; N-terminus assumed) |  | in vivo effectiveness | ~ 23% | ~ 28% |  | lower ANTS release | 45.4 ± 0.8 µM |  |  |
| CC[C@H](C)[C@H](NC(=O)[C@H](CCCNC(=N)N)NC(=O)[C@@H]1CCCCNC(=O)CC[C@H](NC(=O)[C@H](Cc2ccccc2)NC(=O)[C@H](Cc2c[nH]c3ccccc23)NC(=O)[C@@H]2CCCN2C(=O)[C@@H](NC(=O)[C@@H](N)Cc2ccccc2)C(C)C)C(=O)N[C@@H](CCCCN)C(=O)N[C@@H](Cc2ccccc2)C(=O)N[C@H](CC(C)C)C(=O)N1)C(=O)N[C@@H](CC(C)C)C(N)=O [compound 15] (H-FVPWFEKF[dL]KRIL-NH2; lactam 6-10; N-terminus assumed) |  | in vivo effectiveness | ~ 48% |  | less than 20% | lower ANTS release | 17 µM and 17.8 ± 0.9 µM | greater than 1 |  |
| CC[C@H](C)[C@H](NC(=O)[C@H](CCCNC(=N)N)NC(=O)[C@@H]1CSSC[C@H](NC(=O)[C@H](Cc2ccccc2)NC(=O)[C@H](Cc2c[nH]c3ccccc23)NC(=O)[C@@H]2CCCN2C(=O)[C@@H](NC(=O)[C@@H](N)Cc2ccccc2)C(C)C)C(=O)N[C@@H](CCCCN)C(=O)N[C@@H](Cc2ccccc2)C(=O)N[C@H](CC(C)C)C(=O)N1)C(=O)N[C@@H](CC(C)C)C(N)=O [compound 16] (H-FVPWFCKF[dL]CRIL-NH2; disulfide 6-10; N-terminus assumed) |  | in vivo effectiveness |  | ~ 28% |  | lower ANTS release | 42.9 ± 0.7 µM |  | random coil conformation |
